Assay [1] deals with calvaria. In words: Inhibitory effect on bone absorption (calcium liberation from PTH enhanced cultured calvaria). The assay is classed as cell-based. The following applies: newborn dd mouse calvaria culture, PTH 1 x 10^-8M, 96 hours, total calcium in the culture. The procedure:
The calvaria was excised from a newborn dd mouse (5 to 6 days old) under sterile conditions. The calvaria was washed with a modified Dulbecco phosphate buffer physiological saline solution containing neither calcium nor magnesium (a product of Gibco Oriental), and divided into two parts along the center suture. A half of the calvaria was cultivated in a modified Dulbecco Eagle medium (1.5 ml) (a product of Gibco Oriental) containing 2.5% fetal calf serum and 15% equine serum which had been inactivated by heating at 56°C for 20 minutes. The test compound was dissolved in dimethyl sulfoxide and 10 µl of the resulting solution was added to the culture medium to give the final concentrations of 3 x 10^-6M, 1 x 10^-5M, and 3 x 10^-5M. PTH (parathyroid hormone) was dissolved in a 0.15 M saline solution (pH 3) and 3 µl of the resulting solution was added to the culture medium to give the final concentration of 1 x 10^-8M. The culturing was carried out under the condition of 95 % air and 5 % carbon dioxide and at a temperature of 37°C for 96 hours. At 48 hours after the start of the culturing, the culture medium was renewed and the test compound and PTH treated as defined above were added thereto. For examining the effect of the test compound on calcium liberation (bone absorption) from the PTH enhanced bone, a control group, a group using PTH (1 x 10^-8M), and a group using both the test compound (3 x 10^-6M, 1 x 10^-5M, 3 x 10^-5M) and PTH were prepared. The amount of the bone absorption was determined by measuring the amount of calcium accumulated in the culture as collected after 96 hours of culturing. The total calcium concentration in the culture was measured with Calcium C Test Wako. The inhibition rate was calculated using the following equation and the result was shown in terms of 50% inhibitory concentration (IC50). Inhibition of bone absorption from PTH enhanced bone Inhibition rate (%) = [(CP - CD )/(CP - C0 )] x 100 [formula] C0 : The total calcium concentration in the culture containing neither the test compound nor PTH. CP : The total calcium concentration in the culture treated with only PTH. CD : The total calcium concentration in the culture treated . with both the test compound and PTH.

The subject of assay [2] is bone density. The assay can be described thus: Inhibitory effect on decrease of bone density by ovariectomy. It is filed as in vivo. The following applies: ovariectomized female SD strain rats, 10 mg/kg orally once a day for 3 weeks, right hindlimb, DEXA (DXA) method. How it is done: The experiment was carried out using 10-weeks-old female SD strain rats (Charles River Japan Inc.) The ovaries on both sides of the rats were excised under anesthesia using Nembutal. The test compound (10 mg/kg) was dissolved or suspended in distilled water for injection (a product of Otsuka Pharmaceutical Co., Ltd.) and administered orally once a day from the first day after the operation for 3 weeks. For the control group, distilled water for injection alone was administered. The rat was slaughtered by neck dislocation, the right hindlimb was ablated, and then the bone density of the neck was measured according to a DEXA (DXA) method [Japan Clinic, 52 (9), 2329-2334 (1994)] using bone mineral measuring apparatus DCS-600 (a product of Aloka Co., Ltd.) The inhibition rate of decrease in the bone density of the test compound-administered group was calculated from the decrease of the bone density in the test compound-administered group and that in the control group.

In the case of `O=C(c1[nH]c2ccccc2c1C(c1ccc(O)cc1)c1ccc(O)cc1)N1CCN(c2ccccc2Cl)CC1` [Compound 8, 1-{3-[Bis(4-hydroxyphenyl)methyl]indol-2-ylcarbonyl}-4-(2-chloroghenyl)piperazine], in assay [1], the IC50 (usually the concentration that inhibits the measured activity by half) was more than 30 µM.
For the compound `CN(C)CCn1c(C(=O)N2CCN(c3ccccc3Cl)CC2)c(C(c2ccc(O)cc2)c2ccc(O)cc2)c2ccccc21.CS(=O)(=O)O` [Compound 9, 1-{3-[Bis(4-hydroxyphenyl)methyl]-1-(2-dimethylaminoethyl)indol-2-ylcarbonyl}-4-(2-chlorophenyl)piperazine methanesulfonate], the IC50 in assay [1] amounted to 11.5 µM. The “Inhibition rate of decrease in bone density (%)” value in assay [2] worked out at 97%.
The matching figures for `CS(=O)(=O)O.O=C(c1c(C(c2ccc(O)cc2)c2ccc(O)cc2)c2ccccc2n1CCN1CCOCC1)N1CCN(c2ccccc2Cl)CC1` [Compound 10, 1-{3-[Bis(4-hydroxyphenyl)methyl]-1-(2-morpholinoethyl)indol-2-ylcarbonyl}-4-(2-chlorophenyl)-piperazine methanesulfonate]: 9.6 µM and 33%.
Regarding `CCCNC(=O)c1c(C(c2ccc(O)cc2)c2ccc(O)cc2)c2ccccc2n1CCN(C)C` [Compound 11, N-Propyl-3-[bis(4-hydroxyphenyl)methyl]-1-(2-dimethylaminoethyl)indole-2-carboxamide methanesulfonate], the IC50 in assay [1] was more than 30 µM.
The same measure, in the same setting: the result for `CC(C)NC(=O)c1c(C(c2ccc(O)cc2)c2ccc(O)cc2)c2ccccc2n1CCN(C)C` [Compound 12, N-Isopropyl-3-[bis(4-hydroxyphenyl)methyl]-1-(2-dimethylaminoethyl)indole-2-carboxamide methanesulfonate] reads more than 30 µM.
Take `CN(C)CCn1c(C(=O)N2CCCCC2)c(C(c2ccc(O)cc2)c2ccc(O)cc2)c2ccccc21` [Compound 13, 1-{3-[Bis(4-hydroxyphenyl)methyl]-1-(2-dimethylaminoethyl)indol-2-ylcarbonyl)piperidine methanesulfonate]: the IC50 in assay [1] is 15 µM.
Still for that read-out and setting: the result for `CN(C)CCn1c(C(=O)NC2CCCCCC2)c(C(c2ccc(O)cc2)c2ccc(O)cc2)c2ccccc21` [Compound 14, N-Cycloheptyl-3-[bis (4-hydroxyphenyl)methyl]-1-(2-dimethylaminoethyl)indole-2-carboxamide methanesulfonate] reads 11.9 µM.
